Laboratory results as given in patent US20230146455A1, “TREATMENT OF INFLAMMATORY DISEASES WITH PEPTIDES AND PHARMACEUTICAL COMPOSITIONS” (Yuyu Pharma, Inc., priority 2020, published 2023).
Values joined by “and” are separate entries in the source; they are usually repeats but may differ in a detail not shown here. Equal entries are not always repeated. Where a SMILES comes first, the peptide text is derived from it. [ ]: non-standard residue; d: D form. Hyp = O=C(O)[C@@H]1C[C@@H](O)CN1

System: IL-2
Test: Example 8 main study Luminex, LPS hPBMCs: IL-2
Assay type: cell-based, human
Description: Human PBMCs were pretreated with YY-101, YDE-011, YDE-043 or reference compound; Xiidra® at various concentration (ranging from […] to 500 nM) for 2 h before stimulation. An equal volume of 0.5% DMSO was used as a vehicle control. Then, the cells were treated with LPS at 5 ug/ml, which was selected based on the pilot study. The supernatants from treated cells were harvested at 24 h and placed in a 96 well for Luminex cytokine & chemokine profiling using a Luminex 200 multiplex assay (Luminex; R&D system, USA).
The main study arm with triplicate wells per group in a 24-well plate: • 1. Blank • 2. PBMC: 0.5% DMSO • 3. PBMC+LPS (5 ug/ml) • 4. PBMC+YY-101 500 nM • 5. PBMC+YY-101 50 nM • 6. PBMC+YY-101 5 nM • 7. PBMC+YY-101 0.5 nM • 8. PBMC+LPS (5 ug/ml)+Xiidra® 500 nM • 9. PBMC+LPS (5 ug/ml)+Xiidra® 50 nM • 10. PBMC+LPS (5 ug/ml)+Xiidra® 5 nM • 11. PBMC+LPS (5 ug/ml)+Xiidra® 0.5 nM • 12. PBMC+LPS (5 ug/ml)+Xiidra® 0.05 nM • 13. PBMC+LPS (5 ug/ml)+Xiidra® 0.005 nM • 14. PBMC+LPS (5 ug/ml)+YY-101 500 nM • 15. PBMC+LPS (5 ug/ml)+YY-101 50 nM • 16. PBMC+LPS (5 ug/ml)+YY-101 5 nM • 17. PBMC+LPS (5 ug/ml)+YY-101 0.5 nM • 18. PBMC+LPS (5 ug/ml)+YY-101 0.05 nM • 19. PBMC+LPS (5 ug/ml)+YY-101 0.005 nM • 20. PBMC+LPS (5 ug/ml)+YDE-011 500 nM • 21. PBMC+LPS (5 ug/ml)+YDE-011 50 nM • 22. PBMC+LPS (5 ug/ml)+YDE-011 5 nM • 23. PBMC+LPS (5 ug/ml)+YDE-011 0.5 nM • 24. PBMC+LPS (5 ug/ml)+YDE-011 0.05 nM • 25. PBMC+LPS (5 ug/ml)+YDE-011 0.005 nM • 26. PBMC+LPS (5 ug/ml)+YDE-043 500 nM • 27. PBMC+LPS (5 ug/ml)+YDE-043 50 nM • 28. PBMC+LPS (5 ug/ml)+YDE-043 5 nM • 29. PBMC+LPS (5 ug/ml)+YDE-043 0.5 nM • 30. PBMC+LPS (5 ug/ml)+YDE-043 0.05 nM • 31. PBMC+LPS (5 ug/ml)+YDE-043 0.005 nM
Multiplex assay was used to measure 30 cytokines and chemokines. The 1:200 diluted cell supernatant and serial dilution of the standard were dispensed into a 96 well plate at 50 ul/well. Then, the pre-mixed cocktail of antibody-coated magnetic beads was dispensed at 50 ul/well and incubated at room temperature for 2 h in a horizontal orbital microplate shaker at 800±500 rpm. The beads were washed using a magnetic device to prevent loss. The biotin-antibody was dispensed in 50 ul of each well and incubated at room temperature for 1 h in a shaker at 800±500 rpm. After washing, streptavidin-PE was added at 50 ul/well and incubated at room temperature for 30 min in a shaker under the same conditions. Finally, after washing, wash buffer (100 ul/well) was added to the plate and incubated in a shaker for 2 min. The Luminex™ 200 setting were set according to the manufacturer's protocol. The data was calculated with a standard five-parameter logistic nonlinear regression analysis of the data (xPonent software 4.2, USA). Results were presented as concentration (ng/ml or pg/ml).

[1] = PBMC + LPS(5 ug/ml) + compound 0.005 nM, 24 h
[2] = PBMC + LPS(5 ug/ml) + compound 0.05 nM, 24 h
[3] = PBMC + LPS(5 ug/ml) + compound 0.5 nM, 24 h
[4] = PBMC + LPS(5 ug/ml) + compound 5 nM, 24 h
[5] = PBMC + LPS(5 ug/ml) + compound 50 nM, 24 h
[6] = PBMC + LPS(5 ug/ml) + compound 500 nM, 24 h

CC(C)C[C@H](NC(=O)CNC(=O)[C@H](CC(=O)O)NC(=O)[C@H](CCC(N)=O)NC(=O)CNC(=O)[C@@H]1C[C@@H](O)CN1)C(=O)N[C@@H](C)C(=O)NCC(=O)N1CCC[C@H]1C(=O)N[C@@H](CCCCN)C(=O)O [YY-101] (H-[Hyp]GQDGLAGPK-OH; N-terminus and C-terminus assumed)
IL-2 Concentration, individual wells [1]: 2746.7 pg/mL and 2707.7 pg/mL and 2551.7 pg/mL
IL-2 MFI, individual wells [1]: 64.5 and 64.0 and 62.0
IL-2 MFI, Mean (PBMC + LPS(5 ug/ml) + compound 0.005 nM, 24 h, LPS alone Mean 80.5): 63.5
IL-2 Concentration, Mean (PBMC + LPS(5 ug/ml) + compound 0.005 nM, 24 h, LPS alone Mean 3988.7): 2668.7 pg/mL
IL-2 Concentration, individual wells [2]: 2785.6 pg/mL and 3174.7 pg/mL and 3058.1 pg/mL
IL-2 MFI, individual wells [2]: 65.0 and 70.0 and 68.5
IL-2 MFI, Mean (PBMC + LPS(5 ug/ml) + compound 0.05 nM, 24 h, LPS alone Mean 80.5): 67.8
IL-2 Concentration, Mean (PBMC + LPS(5 ug/ml) + compound 0.05 nM, 24 h, LPS alone Mean 3988.7): 3006.1 pg/mL
IL-2 Concentration, individual wells [3]: 2863.5 pg/mL and 2785.6 pg/mL and 2824.6 pg/mL
IL-2 MFI, individual wells [3]: 66.0 and 65.0 and 65.5
IL-2 MFI, Mean (PBMC + LPS(5 ug/ml) + compound 0.5 nM, 24 h, LPS alone Mean 80.5): 65.5
IL-2 Concentration, Mean (PBMC + LPS(5 ug/ml) + compound 0.5 nM, 24 h, LPS alone Mean 3988.7): 2824.6 pg/mL
IL-2 Concentration, individual wells [4]: 2473.6 pg/mL and 2629.7 pg/mL and 2941.4 pg/mL
IL-2 MFI, individual wells [4]: 61.0 and 63.0 and 67.0
IL-2 MFI, Mean (PBMC + LPS(5 ug/ml) + compound 5 nM, 24 h, LPS alone Mean 80.5): 63.7
IL-2 Concentration, Mean (PBMC + LPS(5 ug/ml) + compound 5 nM, 24 h, LPS alone Mean 3988.7): 2681.6 pg/mL
IL-2 Concentration, individual wells [5]: 2473.6 pg/mL and 2707.7 pg/mL and 2863.5 pg/mL
IL-2 MFI, individual wells [5]: 61.0 and 64.0 and 66.0
IL-2 MFI, Mean (PBMC + LPS(5 ug/ml) + compound 50 nM, 24 h, LPS alone Mean 80.5): 63.7
IL-2 Concentration, Mean (PBMC + LPS(5 ug/ml) + compound 50 nM, 24 h, LPS alone Mean 3988.7): 2681.6 pg/mL
IL-2 Concentration, individual wells [6]: 2707.7 pg/mL and 2863.5 pg/mL and 2551.7 pg/mL
IL-2 MFI, individual wells [6]: 64.0 and 66.0 and 62.0
IL-2 MFI, Mean (PBMC + LPS(5 ug/ml) + compound 500 nM, 24 h, LPS alone Mean 80.5): 64.0
IL-2 Concentration, Mean (PBMC + LPS(5 ug/ml) + compound 500 nM, 24 h, LPS alone Mean 3988.7): 2707.6 pg/mL
IL-2 Concentration, individual wells (PBMC + compound 0.5 nM, no LPS): 173.5 pg/mL and 337.0 pg/mL
IL-2 MFI, individual wells (PBMC + compound 0.5 nM, no LPS): 32.0 and 34.0
IL-2 MFI, Mean (PBMC + compound 0.5 nM, no LPS, 0.5% DMSO Mean 30.7): 33.0
IL-2 Concentration, Mean (PBMC + compound 0.5 nM, no LPS, 0.5% DMSO Mean 61.8): 255.2 pg/mL
IL-2 Concentration, individual wells (PBMC + compound 5 nM, no LPS): 173.5 pg/mL
IL-2 MFI, individual wells (PBMC + compound 5 nM, no LPS): 32.0
IL-2 MFI, Mean (PBMC + compound 5 nM, no LPS, 0.5% DMSO Mean 30.7): 32.0
IL-2 Concentration, Mean (PBMC + compound 5 nM, no LPS, 0.5% DMSO Mean 61.8): 173.5 pg/mL
IL-2 Concentration, individual wells (PBMC + compound 0.05 uM, no LPS): 659.4 pg/mL and 337.0 pg/mL
